In US20200010482A1, “INHIBITORS OF BETA SECRETASE” (Janssen Pharmaceutica NV, priority 2017, published 2020):

What was measured:
[1] = target: T1, BACE1 (Homo sapiens, UniProt P56817); assay: BACE1 biochemical FRET based assay; settings: recombinant BACE1 0.04 μg/ml, 20 μM substrate, 450 min, pH 5.0; for IC50: read-out: BIOCHEMICAL FRET BASED ASSAY pIC50 (converted)
T1 construct: recombinant BACE1 protein in a final concentration of 0.04 μg/ml
Source text: (§1) This assay is a Fluorescence Resonance Energy Transfer Assay (FRET) based assay. The substrate for this assay is an APP derived 13 amino acids peptide that contains the ‘Swedish’ Lys-Met/Asn-Leu mutation of the amyloid precursor protein (APP) beta-secretase cleavage site. This substrate also contains two fluorophores: (7-methoxycoumarin-4-yl) acetic acid (Mca) is a fluorescent donor with excitation wavelength at 320 nm and emission at 405 nm and 2,4-Dinitrophenyl (Dnp) is a proprietary quencher acceptor. […] Upon cleavage by BACE1, the fluorophore Mca is separated from the quenching group Dnp, restoring the full fluorescence yield of the donor. The increase in fluorescence is linearly related to the rate of proteolysis.
Briefly in a 384-well format recombinant BACE1 protein in a final concentration of 0.04 μg/ml is incubated for 450 minutes at room temperature with 20 μM substrate in incubation buffer (50 mM Citrate buffer pH 5.0, 0.05% PEG) in the presence of compound or DMSO. Next the amount of proteolysis is directly measured by fluorescence measurement (excitation at 320 nm and emission at 405 nm) at different incubation times (0, 30, 60, 90, 120 and 450 min). For every experiment a time curve (every 30 min between 0 min and 120 min) is used to determine the time where we find the lowest basal signal of the high control. The signal at this time (Tx) is used to subtract from the signal at 450 min. Results are expressed in RFU, as difference between T450 and Tx.
(§2) A best-fit curve is fitted by a minimum sum of squares method to the plot of % Controlmin versus compound concentration. From this an IC50 value (inhibitory concentration causing 50% inhibition of activity) can be obtained. • LC=Median of the low control values=Low control: Reaction without enzyme • HC=Median of the High control values=High Control: Reaction with enzyme
(§3) % Effect=100−[(sample−LC)/(HC−LC)*100]
(§4) % Control=(sample/HC)*100
(§5) % Controlmin=(sample−LC)/(HC−LC)*100

[2] = test system: Abeta 1-42 produced and secreted by SKNBE2 cells expressing hAPP695; assay: Cellular αLisa assay in SKNBE2 cells, Abeta 1-42; type: cell-based, human; settings: SKNBE2 cells expressing hAPP695, 18 hours incubation; for IC50: Homo sapiens, SKNBE2, 18 h, read-out: CELLULAR αLISA ASSAY IN SKNBE2 CELLS ABETA 42 PIC50 (converted)
Method: In two αLisa assays the levels of Abeta total and Abeta 1-42 produced and secreted into the medium of human neuroblastoma SKNBE2 cells are quantified. The assay is based on the human neuroblastoma SKNBE2 expressing the wild type Amyloid Precursor Protein (hAPP695). The compounds are diluted and added to these cells, incubated for 18 hours and then measurements of Abeta 1-42 and Abeta total are taken. Abeta total and Abeta 1-42 are measured by sandwich αLisa. αLisa is a sandwich assay using biotinylated antibody AbN/25 attached to streptavidin coated beads and antibody Ab4G8 or cAb42/26 conjugated acceptor beads for the detection of Abeta total and Abeta 1-42 respectively. In the presence of Abeta total or Abeta 1-42, the beads come into close proximity. The excitation of the donor beads provokes the release of singlet oxygen molecules that trigger a cascade of energy transfer in the acceptor beads, resulting in light emission. Light emission is measured after 1 hour incubation (excitation at […] and emission at 615 nm).
as §2, with “cells preincubated” for “Reaction”, “compound, without biotinylated Ab in the αLisa” for “enzyme”, “cells preincubated without compound” for “Reaction with enzyme”
as §3, §4, §5

[3] = target: T2, BACE2 (Homo sapiens, UniProt Q9Y5Z0); assay: BACE2 biochemical FRET based assay; settings: recombinant BACE2 0.4 μg/ml, 10 μM substrate, 450 min, pH 5.0; for IC50: read-out: BIOCHEMICAL FRET BASED ASSAY pIC50 (converted)
T2 construct: recombinant BACE2 protein in a final concentration of 0.4 μg/ml
T2 sequence (Q9Y5Z0 63-518): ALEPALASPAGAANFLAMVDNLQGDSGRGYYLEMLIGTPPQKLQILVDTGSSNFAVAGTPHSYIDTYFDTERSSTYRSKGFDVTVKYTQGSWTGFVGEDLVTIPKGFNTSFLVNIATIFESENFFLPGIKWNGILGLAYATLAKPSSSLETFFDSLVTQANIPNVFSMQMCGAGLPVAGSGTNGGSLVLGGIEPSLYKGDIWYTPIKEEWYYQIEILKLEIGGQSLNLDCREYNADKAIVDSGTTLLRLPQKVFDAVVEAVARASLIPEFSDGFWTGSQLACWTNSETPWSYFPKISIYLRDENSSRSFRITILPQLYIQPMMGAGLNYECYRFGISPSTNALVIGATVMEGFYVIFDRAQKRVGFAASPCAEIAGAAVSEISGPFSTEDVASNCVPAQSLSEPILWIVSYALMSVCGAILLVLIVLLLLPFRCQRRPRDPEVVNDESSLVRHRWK
Source text: as §1, with “assay” for “assay is an APP derived 13 amino acids peptide that”, “the beta-secretase,” for “BACE1,”
Briefly in a 384-well format recombinant BACE2 protein in a final concentration of 0.4 μg/ml is incubated for 450 minutes at room temperature with 10 μM substrate in incubation buffer (50 mM Citrate buffer pH 5.0, 0.05% PEG, no DMSO) in the absence or presence of compound. Next the amount of proteolysis is directly measured by fluorescence measurement at T=0 and T=450 (excitation at 320 nm and emission at 405 nm). Results are expressed in RFU (Relative Fluorescence Units), as difference between T450 and TO.
as §2, §3, §4, §5

[4] = target: β-secretase I (BACE1) (Homo sapiens, UniProt P56817); assay: Biochemical assay, automated (CyclOps), BACE1; settings: automated CyclOps bioassay
Chain of β-secretase I (BACE1) (P56817 46-501): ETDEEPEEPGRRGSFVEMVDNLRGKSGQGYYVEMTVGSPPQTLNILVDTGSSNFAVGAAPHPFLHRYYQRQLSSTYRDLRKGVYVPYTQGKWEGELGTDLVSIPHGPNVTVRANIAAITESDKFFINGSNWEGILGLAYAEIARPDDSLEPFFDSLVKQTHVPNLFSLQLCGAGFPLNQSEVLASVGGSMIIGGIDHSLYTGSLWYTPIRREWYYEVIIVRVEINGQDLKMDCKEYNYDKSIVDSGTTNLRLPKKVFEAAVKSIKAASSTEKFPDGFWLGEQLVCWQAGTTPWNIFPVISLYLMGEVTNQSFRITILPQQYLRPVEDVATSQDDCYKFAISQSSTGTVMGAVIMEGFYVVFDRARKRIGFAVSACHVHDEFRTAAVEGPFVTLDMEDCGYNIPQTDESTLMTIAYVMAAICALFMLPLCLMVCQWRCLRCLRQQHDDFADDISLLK
Method: (§6) Unless otherwise indicated all biochemicals were purchased from Sigma-Aldrich Chemical Company, Poole, Dorset, U.K. and non-aqueous solvents, of analytical or higher grade, were purchased from ThermoFisher Scientific, Loughborough, U.K. MilliQ water (Elix 5 & MilliQ Gradient; Merck Millipore) was used as the base aqueous solvent to make up the biological buffers. Base assay buffer was prepared by adding a 50 mM solution of citric acid (1.00244; Merck Biosciences) to stirring solution of 50 mM trisodium citrate (1.06448; Merck Biosciences) until a final pH of 5.0 was achieved. […] All assays were routinely carried out in 384-well assay plates (Costar 4514; Corning Life Sciences) and incubated at 37±1° C. for 60 min. prior to reading the endpoint fluorescence intensity. The (7-methoxyl coumarin-4-yl)acetic acid based substrate β-secretase substrate VI (M2465; Bachem) was prepared as a 1 mM stock in 100% DMSO (D/4121/PB08; ThermoFisher). Assay buffer was prepared by adding DMSO to base buffer to a final concentration of 1% (vol./vol.). β-secretase I (18.64 μM; “BACE1”) and β-secretase II (4.65 μM; “BACE2”) were obtained from Janssen Pharmaceutica, Beerse, Belgium and were stored as frozen aliquots (˜20 μl) and thawed as required.
(§7) Typically 12.5 μl of assay buffer was dispensed to rows B to P of the assay plate. To row A was added 18.75 μl of test compound diluted appropriately in assay buffer. A 6.25 μl aliquot of sample was transferred from row A to row B and the sample mixed three times by pipette. The process was repeated down the plate and 6.25 μl of solution discarded at row N post-mix. Rows O and P were designated as the positive and negative controls. To row P was added 6.25 μl base buffer. To rows A to O was added 6.25 μl enzyme (freshly prepared 40 nM BACE1 or 40 nM BACE2) diluted in base buffer. To initiate the assay 6.25 μl of freshly prepared 80 μM substrate, made up by diluting the 1 mM in 100% DMSO solution into HPLC grade water (Optima W6-212; ThermoFisher), was added to all the wells. The assay plate was covered and incubated at 37±1° C. for 60 min. The fluorescence intensity of the wells was read at 360/405 nm (excitation/emission) utilising a nine reads per well protocol (50 ms integration; density of 3, 0.25 mm spacing; SpectraMAX Paradigm plate reader; TUNE cartridge; SoftMax Pro v 6.3 software; Molecular Devices UK Ltd., Wokingham, Berkshire, UK) and outputting the median value of the nine reads as a text file. Data analysis was carried out using Prism software v 6.3 (GraphPad Inc., San Diego, Calif., USA) using the non-linear regression analysis models supplied by the vendor. For IC50 determinations the four parameter logistic variable slope model was used to fit the raw fluorescence intensity data with the ‘bottom’ fixed to the negative control.
(§8) The CyclOps bioassay module consisted of a fraction collection station, a reagent station, liquid handling robotics, plate store and an integrated plate reader (SpectraMAX Paradigm, TUNE cartridge, SoftMax Pro v 6.3; Molecular Devices). The fraction collection station composed of a 384 well collection plate (P-384-240SQ-C; Axygen, Union City, Calif., USA) mounted on a H-portal carriage (Festo AG & Co. KG, Esslingen, Germany), a syringe drive and a two-way six port injection valve fitted with a 200 μl loop (VICI AG International, Schenkon Switzerland). The output of the injection valve was addressable to all the positions of a 384 well collection plate. The reagent station consisted of hydraulically cooled (10-12° C.) aluminium segments; each manufactured to house a SBS microtiter plate footprint. Independent addressable reagent stations were housed within these sections. Where required, custom aluminium housings were used to accommodate standard laboratory plastic ware (e.g. Eppendorf tubes, Falcon tubes, etc.). As and when required the reagent reservoirs were covered and the lids contained holes through which the Teflon-coated probe could access solutions. […]

[5] = target: T3, β-secretase II (BACE2) (Homo sapiens, UniProt Q9Y5Z0); assay: Biochemical assay, automated (CyclOps), BACE2; settings: automated CyclOps bioassay
T3 sequence (Q9Y5Z0 63-518): T2 sequence (Q9Y5Z0 63-518)
Method: as §6, §7, §8

T1 sequence (P56817 46-501): as above

| Compound | IC50 [1] [nM] | IC50 [2] [nM] | IC50 [3] [nM] | AUTOMATED ASSAY BACE1 pIC50 [4] | AUTOMATED ASSAY BACE2 pIC50 [5] | also measured |
| --- | --- | --- | --- | --- | --- | --- |
| COc1ncc(Br)c2c1C[C@]1(c3cc(O)ccc3F)N=C(N)SC[C@@H]1C2 [Compound 42] | 27.5 | 155 | 29.5 | – | – | – |
| COc1ncc(C2=CCOCC2)c2c1C[C@]1(c3ccc(F)cc3F)N=C(N)SC[C@@H]1C2 [Compound 46] | – | – | – | – | – | BIOCHEMICAL FRET BASED ASSAY pIC50 [1]: 8.64; CELLULAR αLISA ASSAY IN SKNBE2 CELLS ABETA 42 PIC50 [2]: 9.21; BIOCHEMICAL FRET BASED ASSAY pIC50 [3]: 8.44 |
| COc1ncc(/C=C/c2ccc(F)cc2)c2c1C[C@]1(c3ccc(F)cc3F)N=C(N)SC[C@@H]1C2 [Compound 48] | – | – | – | 7.76 | 7.63 | – |
| COc1ncc(-c2ccccc2F)c2c1C[C@]1(c3ccc(F)cc3F)N=C(N)SC[C@@H]1C2 [Compound 50] | – | – | – | 8.28 | 7.96 | – |
| COc1ncc(-c2cc(C(F)(F)F)ccc2F)c2c1C[C@]1(c3ccc(F)cc3F)N=C(N)SC[C@@H]1C2 [Compound 51] | – | – | – | 7.34 | 6.83 | – |
| COc1ncc(-c2cc(F)cc(F)c2)c2c1C[C@]1(c3ccc(F)cc3F)N=C(N)SC[C@@H]1C2 [Compound 54] | – | – | – | 8.54 | 8.42 | – |
| COc1ncc(-c2cccc(C)c2C)c2c1C[C@]1(c3ccc(F)cc3F)N=C(N)SC[C@@H]1C2 [Compound 56] | – | – | – | 8.11 | 7.63 | – |
| COc1ncc(-c2ccc(F)cc2C)c2c1C[C@]1(c3ccc(F)cc3F)N=C(N)SC[C@@H]1C2 [Compound 58] | – | – | – | 7.77 | 6.99 | – |
| COc1ccncc1-c1cnc(OC)c2c1C[C@H]1CSC(N)=N[C@@]1(c1ccc(F)cc1F)C2 [Compound 103] | 209 | 13.8 | 2570 | – | – | – |
| COc1nccc2c1C[C@]1(c3cc(OCC4CC4)ccc3F)N=C(N)SC[C@@H]1C2 [Compound 136] | 14.8 | 18.6 | 14.8 | – | – | – |
| COc1nccc2c1C[C@@]1(c3cc(OCC4CC4)ccc3F)N=C(N)SC[C@H]1C2 [Compound 184] | > 10000 | 5370 | > 10000 | – | – | – |
| COc1nccc2c1C[C@@]1(c3cc(-c4cncnc4)ccc3F)N=C(N)SC[C@H]1C2 [Compound 185] | > 10000 | > 8910 | > 10000 | – | – | – |
| COc1nccc2c1C[C@@]1(c3cc(-c4cncc(C#N)c4)ccc3F)N=C(N)SC[C@H]1C2 [Compound 186] | > 10000 | > 8910 | > 10000 | – | – | – |
| COc1ncc(Br)c2c1C[C@@]1(c3cc(O)ccc3F)N=C(N)SC[C@H]1C2 [Compound 189] | > 10000 | 6920 | > 10000 | – | – | – |
